Results published in ChEMBL document CHEMBL1201862, “PubChem BioAssay data set” (2004).
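Protocol summary: plate cells (96-well), add compound at 5 concentrations, incubate 48 h, interpolate endpoints linearly. At the GI50, growth is halved.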 Active and inactive are the calls of the source. No stated cut-off is given here; in the data, active = GI50 up to about 1.1 µM and inactive = higher.

Assays:
Assay in all cases: NCI-60 cell line screen, 48 h
[1] = system: SW-620
[2] = system: SNB-75
[3] = system: SK-MEL-28
[4] = system: OVCAR-8
[5] = system: A549
[6] = system: SN12C
[7] = system: NCI-H522
[8] = system: DLD-1
[9] = system: M19-MEL
[10] = system: 786-0
[11] = system: NCI-H23
[12] = system: RXF 393
[13] = system: OVCAR-4
[14] = system: U-251
[15] = system: HOP-92
[16] = system: NCI-H460
[17] = system: SF-295
[18] = system: DMS-273
[19] = system: IGROV-1
[20] = system: OVCAR-3
[21] = system: TK-10
[22] = system: KM-20L2
[23] = system: UACC-257
[24] = system: CAKI-1
[25] = system: LOX IMVI
[26] = system: K562
[27] = system: UO-31
[28] = system: HCT-116
[29] = system: SNB-78
[30] = system: SR
[31] = system: NCI-H226
[32] = system: COLO 205
[33] = system: SF-539
[34] = system: Malme-3M
[35] = system: OVCAR-5
[36] = system: MOLT-4
[37] = system: DMS-114
[38] = system: HCC 2998
[39] = system: UACC-62
[40] = system: RPMI-8226
[41] = system: HOP-62
[42] = system: XF498
[43] = system: SNB-19
[44] = system: ACHN
[45] = system: HT-29
[46] = system: HCT-15
[47] = system: HL-60
[48] = system: SK-MEL-5
[49] = system: M14
[50] = system: SF-268
[51] = system: KM12
[52] = system: SK-OV-3
[53] = system: LXFL 529
[54] = system: CCRF-CEM
[55] = system: SK-MEL-2
[56] = system: A498

CCCCN(CCCC)CC(C(=O)Nc1ccccc1)/C(C)=N\NC(=O)c1ccncc1 (stereo unspecified)
GI50 [1]: > 100 µM (inactive)
GI50 [2]: 16.9 µM (inactive)
GI50 [3]: > 100 µM (inactive)
GI50 [4]: > 100 µM (inactive)
GI50 [5]: > 100 µM (inactive)
GI50 [6]: > 100 µM (inactive)
GI50 [7]: > 100 µM (inactive)
GI50 [8]: > 100 µM (inactive)
GI50 [9]: 68.9 µM (inactive)
GI50 [10]: > 100 µM (inactive)
GI50 [11]: > 100 µM (inactive)
GI50 [12]: > 100 µM (inactive)
GI50 [13]: > 100 µM (inactive)
GI50 [14]: > 100 µM (inactive)
GI50 [15]: > 100 µM (inactive)
GI50 [16]: 46 µM (inactive)
GI50 [17]: > 100 µM (inactive)
GI50 [18]: > 100 µM (inactive)
GI50 [19]: > 100 µM (inactive)
GI50 [20]: 64.7 µM (inactive)
GI50 [21]: > 100 µM (inactive)
GI50 [22]: > 100 µM (inactive)
GI50 [23]: > 100 µM (inactive)
GI50 [24]: > 100 µM (inactive)
GI50 [25]: 81.5 µM (inactive)
GI50 [26]: > 100 µM (inactive)
GI50 [27]: 28.5 µM (inactive)
GI50 [28]: 92 µM (inactive)
GI50 [29]: > 100 µM (inactive)
GI50 [30]: > 100 µM (inactive)
GI50 [31]: > 100 µM (inactive)
GI50 [32]: > 100 µM (inactive)
GI50 [33]: > 100 µM (inactive)
GI50 [34]: > 100 µM (inactive)
GI50 [35]: > 100 µM (inactive)
GI50 [36]: > 100 µM (inactive)
GI50 [37]: 63 µM (inactive)
GI50 [38]: > 100 µM (inactive)
GI50 [39]: 59.3 µM (inactive)
GI50 [40]: > 100 µM (inactive)
GI50 [41]: > 100 µM (inactive)
GI50 [42]: > 100 µM (inactive)
GI50 [43]: > 100 µM (inactive)
GI50 [44]: > 100 µM (inactive)
GI50 [45]: > 100 µM (inactive)
GI50 [46]: > 100 µM
GI50 [47]: 98.2 µM (inactive)
GI50 [48]: > 100 µM (inactive)
GI50 [49]: > 100 µM (inactive)
GI50 [50]: > 100 µM (inactive)
GI50 [51]: > 100 µM (inactive)
GI50 [52]: > 100 µM (inactive)

C=C(C)C1CC=C(C)C(O)([C@@]2(O)C[C@H](C(=C)C)CC=C2C)C1 (stereo partly specified)
GI50 [1]: 26.7 µM (inactive)
GI50 [2]: 15.4 µM (inactive)
GI50 [3]: 28.3 µM (inactive)
GI50 [4]: 17.2 µM (inactive)
GI50 [53]: 26.6 µM (inactive)
GI50 [5]: 29.7 µM (inactive)
GI50 [6]: 18.3 µM (inactive)
GI50 [7]: 12.6 µM (inactive)
GI50 [8]: 30.3 µM (inactive)
GI50 [9]: 11.5 µM (inactive)
GI50 [10]: 16.8 µM (inactive)
GI50 [11]: 17.3 µM (inactive)
GI50 [12]: 13.7 µM (inactive)
GI50 [54]: 20.1 µM (inactive)
GI50 [13]: 19 µM (inactive)
GI50 [14]: 16.7 µM (inactive)
GI50 [15]: 12.9 µM (inactive)
GI50 [55]: 17.4 µM (inactive)
GI50 [16]: 18 µM (inactive)
GI50 [17]: 18.9 µM (inactive)
GI50 [18]: 16.2 µM (inactive)
GI50 [19]: 16.6 µM (inactive)
GI50 [20]: 13.4 µM (inactive)
GI50 [21]: 33.3 µM (inactive)
GI50 [23]: 19.3 µM (inactive)
GI50 [24]: 13.5 µM (inactive)
GI50 [25]: 13.9 µM (inactive)
GI50 [26]: 22.2 µM (inactive)
GI50 [27]: 28.4 µM (inactive)
GI50 [28]: 17.6 µM (inactive)
GI50 [29]: 30.6 µM (inactive)
GI50 [30]: 21.7 µM (inactive)
GI50 [31]: > 10 µM (inactive)
GI50 [33]: 19.8 µM (inactive)
GI50 [34]: 22.8 µM (inactive)
GI50 [35]: 24.5 µM (inactive)
GI50 [36]: 17.8 µM (inactive)
GI50 [37]: 37.3 µM (inactive)
GI50 [56]: 23.8 µM (inactive)
GI50 [38]: 16.4 µM (inactive)
GI50 [39]: 19.8 µM (inactive)
GI50 [40]: 20.5 µM (inactive)
GI50 [41]: 16.9 µM (inactive)
GI50 [42]: 14 µM (inactive)
GI50 [43]: 32.1 µM (inactive)
GI50 [44]: 20.3 µM (inactive)
GI50 [45]: 17.3 µM (inactive)
GI50 [46]: > 10 µM
GI50 [47]: 23.1 µM (inactive)
GI50 [48]: 14.8 µM (inactive)
GI50 [49]: 16.4 µM (inactive)
GI50 [50]: 29.9 µM (inactive)
GI50 [51]: 19.3 µM (inactive)
GI50 [52]: 27.2 µM (inactive)
